Several values for one entry are separate records, joined by “and”; a condition that tells them apart may be missing. Equal entries are not always repeated. Entries after “also recorded” stand apart in the source; their conditions may differ. Where two headings read alike, the source gives them in different places.
Tests used:
[1] = molecular target: T1, recombinant soluble epoxide hydrolase (sEH) (Homo sapiens, UniProt P34913); assay: Inhibition assay with soluble epoxide hydrolase (PHOME); type: biochemical; conditions: for effect on the activity of recombinant soluble epoxide hydrolase (sEH): 50 μM PHOME
T1 construct: made in house
T1 sequence (P34913 1-555): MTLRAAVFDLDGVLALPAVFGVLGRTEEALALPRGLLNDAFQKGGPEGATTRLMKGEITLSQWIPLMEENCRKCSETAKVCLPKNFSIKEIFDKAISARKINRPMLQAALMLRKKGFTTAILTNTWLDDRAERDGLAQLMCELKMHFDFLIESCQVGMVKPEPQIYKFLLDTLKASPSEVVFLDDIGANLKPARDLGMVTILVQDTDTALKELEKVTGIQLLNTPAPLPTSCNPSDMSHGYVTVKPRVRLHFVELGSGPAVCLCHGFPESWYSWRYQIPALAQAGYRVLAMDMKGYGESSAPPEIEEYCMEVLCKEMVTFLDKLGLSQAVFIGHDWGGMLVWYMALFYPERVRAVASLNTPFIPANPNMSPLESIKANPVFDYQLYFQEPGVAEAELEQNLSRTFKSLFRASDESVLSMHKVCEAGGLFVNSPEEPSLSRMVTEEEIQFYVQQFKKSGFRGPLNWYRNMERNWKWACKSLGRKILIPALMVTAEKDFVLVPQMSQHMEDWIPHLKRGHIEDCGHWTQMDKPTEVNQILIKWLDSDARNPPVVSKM
Method: The human recombinant soluble epoxide hydrolase (sEH) was expressed and purified as described before.
Pre-incubation with 0.5 µg/mL of sEH and test compounds or 0.1% (v/v) vehicle was performed in 25 mM Tris-HCl buffer (pH 7.0) containing 0.1 mg/mL bovine serum albumin at room temperature for 10 min. Reaction was initiated with 50 μM PHOME, a non-fluorescent compound that is enzymatically converted into fluorescent 6-methoxy-naphtaldehyde, at room temperature for 60 min. Reactions were stopped with 200 mM ZnSO4 and fluorescence signals were recorded at 330 nm/465 nm (ex/em). If required, a possible fluorescence of test compounds was subtracted from the read-out.

5-LOX = molecular target: T2, 5-LOX (Homo sapiens, UniProt P09917); assay: Inhibition assay with recombinant 5-LOX; type: biochemical; design: made in house; host or cells: Escherichia coli BL21; conditions: 20 µM AA, 2 mM CaCl2
T2 sequence (P09917 1-674): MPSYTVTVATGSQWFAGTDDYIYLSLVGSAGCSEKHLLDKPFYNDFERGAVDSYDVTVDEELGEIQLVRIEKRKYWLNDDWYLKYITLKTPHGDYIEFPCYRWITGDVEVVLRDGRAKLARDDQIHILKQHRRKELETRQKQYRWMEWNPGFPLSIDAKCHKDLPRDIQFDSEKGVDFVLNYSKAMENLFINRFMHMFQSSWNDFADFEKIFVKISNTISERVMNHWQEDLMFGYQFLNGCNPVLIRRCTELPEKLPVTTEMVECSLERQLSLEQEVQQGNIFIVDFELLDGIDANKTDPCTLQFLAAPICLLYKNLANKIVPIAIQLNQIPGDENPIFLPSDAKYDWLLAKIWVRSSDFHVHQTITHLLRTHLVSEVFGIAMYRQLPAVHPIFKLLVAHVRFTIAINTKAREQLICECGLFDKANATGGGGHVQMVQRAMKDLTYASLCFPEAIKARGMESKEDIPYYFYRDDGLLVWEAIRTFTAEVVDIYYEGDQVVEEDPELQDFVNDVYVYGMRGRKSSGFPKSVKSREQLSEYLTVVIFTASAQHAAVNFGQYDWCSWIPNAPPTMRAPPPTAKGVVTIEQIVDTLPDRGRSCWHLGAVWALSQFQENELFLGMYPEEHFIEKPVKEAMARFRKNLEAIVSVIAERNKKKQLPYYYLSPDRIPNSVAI
Method: Escherichia coli BL21 cells were transformed with the pT3-5-LO vector and human recombinant 5-LOX was expressed overnight at 30 °C as previously described. […] The supernatant was loaded on an ATP-agarose column and washed with 50 mM phosphate buffer (PB) containing 1 mM EDTA. Protein fractions were eluted with PB supplemented with 1 mM EDTA and 20 mM ATP. Aliquots of semi-purified 5-LOX were diluted with PBS containing 1 mM EDTA and used immediately in incubations.
Aliquots of 5-LOX (0.5 μg) were pre-incubated with test compounds or a vehicle (0.1%, v/v) for 10 min at 4 °C. […] The reaction was stopped after 10 min by addition of 1 vol of ice-cold methanol. Formed metabolites, i.e., LTB4, trans- and epi-trans-LTB4, and 5S-HETE, were analyzed with reverse-phase HPLC using a C18 RP Radial PAK column (Waters) as described previously.

[2] = read-out: IC50 with recombinant human 5-LOX

SMILES | effect on the activity of recombinant soluble epoxide hydrolase (sEH) [1] | IC50 (5-LOX; [2]) | IC50 (5-LOX; IC50 with recombinant human 5-LOX) | effect on the activity of soluble epoxide hydrolase (sEH) at 10 µM ([1]; 10 µM inhibitor)
Nc1nc(-c2ccc(Cc3ccccc3)cc2)cs1 [ARM1, 4-(4-benzylphenyl) thiazol-2-amine, reference compound] | did not have any effect; also recorded: do not affect | 6.7 µM and ~6 µM |  | 
Nc1nc(-c2ccc(Cc3ccccc3)cc2)c[se]1 [TTSe, 4-(4-benzylphenyl) selenazol-2-amine] | did not have any effect; also recorded: do not affect |  | 19.9 µM and ~20 µM | 
Nc1nc(-c2ccc(Cc3ccccc3)cc2)co1 [TTO, 4-(4-benzylphenyl) oxazol-2-amine] | at higher concentrations may affect | 33.6 µM and > 30 µM |  | attenuated

— paper PMC10145651, “Modulation of the 5-Lipoxygenase Pathway by Chalcogen-Containing Inhibitors of Leukotriene A4 Hydrolase” (International Journal of Molecular Sciences, 2023)
